This is an account of results in PMC4694998, “Suppression of β-catenin/TCF transcriptional activity and colon tumor cell growth by dual inhibition of PDE5 and 10” (Oncotarget, 2015).

As a reminder, the pIC50 is the negative decadic logarithm of the IC50, by convention in mol/L.

pIC50: −log10 of the molar value.

The subject of one assay is HT29 colon tumor cells. Description: Growth assay (Cell Titer Glo), HT29. It counts as cell-based. The settings on record: Homo sapiens, HT-29; 72 hours of treatment; read-out: HT29 growth IC50. The procedure:
(§1) Human colon tumor cell lines, HCT116, HT29, SW480 and Caco-2 were obtained from the American Type Culture Collection (ATCC) and grown under standard cell culture conditions in RPMI 1640 medium containing 5% serum at 37°C in a humidified atmosphere with 5% CO2. The human colonocyte line, NCM460, that is derived from normal human colon mucosa was obtained from INCELL and grown in INCELL’s enriched M3:10 medium with 10% serum as recommended by supplier. All cell lines were expanded upon delivery, and numerous aliquots of low passage cells were preserved in liquid N2. Cells were passaged no longer than 2 months. Tumor cell lines obtained from ATCC were characterized by STR profiling as performed by ATCC. The NCM460 line was characterized by INCELL as described previously (e.g. tumorigenicity testing). No additional re-authentication of the cell lines was performed except for experimental reasons (e.g. confirmation of cell doubling time, morphology, sensitivity to SS, PDE5/10 expression levels, etc).
(§2) Cells were plated in 96-well microtiter plates at a density of 5,000 cells per well. For drug treatment, cells were treated with compound or vehicle, and incubated at 37°C for 72 hours. All growth assays were performed in 5% serum unless otherwise noted. Deionized water was used as vehicle control for papaverine. For siRNA assays, cells were transfected with siRNA under the same condition described above. The effect of treatment on cell growth was measured using the Cell Titer Glo Assay as specified by the manufacturer (Promega).
(§3) The IC50 values were determined as described previously. All experiments were repeated a minimum of three times to determine the reproducibility of the results. All error bars represent standard error of the mean (SEM). Statistical analysis of differences between samples was performed using the Student’s t-test. A P value of < 0.05 was considered statistically significant.

Assay [1] deals with NCM460 normal colonocytes. Briefly: Growth assay (Cell Titer Glo), NCM460 normal colonocytes. It is filed as cell-based, human. The protocol: as §1, §2, §3
In general terms: Cellular ATP, detected with luciferase, serves as a proxy for viable cell number.

Assay [2] deals with HCT116 colon tumor cells. Briefly: Apoptosis assay (Caspase 3/7 Glo), HCT116. It is filed as cell-based, human. The note with it: caspase-3 and -7, 6 hours of treatment. The protocol:
Cells were plated in 96-well microtiter plates at a density of 10,000 cells per well, and allowed to attach overnight. Cells were treated with ADT-094 or vehicle, and incubated at 37°C for 6 hours. All apoptosis assays were done in 5% serum using either tumor cells or normal colonocytes. The induction of apoptosis caused by treatment was determined using Caspase 3/7 Glo Assay (Promega), which is a luminescent assay that measures substrate cleavage by caspases-3 and -7. The assay was done according to manufacturer’s specifications.

For assay [3], the system named is HCT116 colon tumor cells. Description: Cell proliferation assay (EdU incorporation, flow cytometry). It counts as cell-based, human. The settings on record: 24 hours treatment with 0.1 μmol/L. The procedure:
The antiproliferative activity of ADT-094 was determined by measuring EdU (5-ethynyl-2′-deoxyuridine) incorporation during DNA synthesis. Cells were plated at a density of 1.5 × 10^6 cells per 10 cm tissue culture dish and incubated overnight at 37°C. After growing the cells in serum-free media overnight, the cells were treated with ADT-094 or vehicle in medium supplemented with 10% serum for 6 hours. A final concentration of 10 μmol/L EdU was added to each dish and incubated for an additional 18 hours. Cells were harvested and analyzed using the Click-iT EdU Alexa Fluor 488 Proliferation Assay (Invitrogen) according to the manufacturer’s specifications. The percentage of proliferating cells was quantified using a BD FACSCalibur flow cytometer.

Assay [4] deals with intracellular cGMP in HCT116 colon tumor cells. Briefly: cGMP assay (EIA), HCT116. It counts as cell-based, human. The settings on record: 45 min of treatment. The procedure: (§4) Cells were plated at a density of 1 × 10^6 cells per 10 cm tissue culture dish, incubated for 48 hours, and treated with ADT-094 or vehicle control. After 45 min of treatment, cells were lysed and assayed for cGMP content using the cGMP Direct Biotrak EIA kit (GE Healthcare Life Sciences). The assay was done according to the manufacturer’s specifications.

Assay [5] deals with intracellular cGMP in normal colonocytes. Description: cGMP assay (EIA), colonocytes. It counts as cell-based, human. The settings on record: 45 min of treatment. The procedure:
as §4

Assay [6] concerns PKG activity (phospho-Ser239 VASP) in HCT116 colon tumor cells. Description: Western blotting of VASP phosphorylation, HCT116. It is filed as cell-based, human. The protocol:
(§5) Western blotting was performed as described previously. Cells were treated with ADT-094 or vehicle for 8 hours before cell lysates were collected.

In assay [7] the test system is PKG/PKA activity (VASP Ser239/Ser157) in Caco-2 colon tumor cells. Briefly: Western blotting of VASP phosphorylation, Caco-2. It is filed as cell-based, human. The protocol: as §5
On the technique in general: In western blotting, separated proteins are transferred to a membrane and probed.

The test system of assay [8] is β-catenin signaling in HCT116 colon tumor cells. Description: Western blotting of β-catenin, cyclin D1, survivin, HCT116. It counts as cell-based, human. The protocol:
as §5

Assay [9] has as its system β-catenin signaling in Caco-2 colon tumor cells. Description: Western blotting of β-catenin, cyclin D1, survivin, Caco-2. It counts as cell-based, human. The procedure: as §5
The subject of assay [10] is β-catenin/TCF transcriptional activity in HCT116 cells. It is filed as cell-based. The note with it: HCT116, 24 hours of treatment. The procedure: (§6) Cells were seeded at a density of 5 × 10^4 cells per well in 24-well tissue culture plates and incubated overnight at 37°C. Cells were transiently transfected with 0.1 μg TOP-FLASH constructs (Millipore) and 0.1 μg β-galactosidase-expressing vector (Promega). After 24 hours of transfection, cells were treated with ADT-094 or vehicle for 24 hours. At the end of treatment, cells were lysed and both luciferase and β-galactosidase activities were measured using kits from Promega. All luciferase activity was normalized to β-galactosidase activity.

Assay [11] concerns β-catenin/TCF transcriptional activity in SW480 cells. Briefly: TOP-FLASH luciferase reporter assay, SW480. It counts as cell-based, human. The note with it: SW480, 24 hours of treatment. The procedure:
as §6
(A reporter such as luciferase makes a cellular process visible.)

In the case of `COc1ccc2c(c1)C(CC(=O)NCc1ccco1)=C(C)/C2=C/c1cc(OC)c(OC)c(OC)c1` [ADT-094, (Z)-N-(furan-2-ylmethyl)-2-(5-methoxy-2-methyl-1-(3,4,5-trimethoxybenzylidene)-1H-inden-3-yl) acetamide], the pIC50 was 7.00 in the assay on HT29 colon tumor cells and less than 5.00 in assay [1] (Homo sapiens, NCM460, Figure 3C, luciferase-based ATP assay, 72 hours, read-out: NCM460 growth IC50). The “growth of normal colonocytes (tumor cell selectivity)” value in [1] (in words) is given as “essentially refractory to treatment”. Moreover, the “caspase activity (apoptosis)” value in the assay with HCT116 colon tumor cells [2] is recorded as “increased caspase activity”. In addition, the “proliferation (EdU incorporation)” value in the assay with HCT116 colon tumor cells [3] is listed as “inhibited the proliferation”. Further, the figures for the “intracellular cGMP levels” value in assay [4] and in assay [5] were “significantly increased” and “did not significantly affect”, respectively. Besides, the “phospho-Ser239 VASP levels (PKG activity)” value in assay [6] is recorded as “increased”. Moreover, the “VASP phosphorylation at Ser239” value in assay [7] (Caco-2) is listed as “Dose-dependent increases”. The “PKA activity (VASP phosphorylation at Ser157)” value in assay [7] (Caco-2, at concentrations that cause PKG activation) is “did not affect PKA activity”. The “levels of cyclin D1 and survivin” value in [8] and in [9] was “also decreased” each time. In addition, the β-catenin levels entry in assay [8] and in assay [9] was “dose-dependent decrease” throughout. For the same compound, the β-catenin/TCF transcriptional activity entry in assay [10] and in [11] was “significantly inhibited” in each case.
